Assay results taken from patent US20210147481A1, “PEPTIDE-BASED INHIBITORS OF MARK FAMILY PROTEINS” (Ohio Universtiy, priority 2017, published 2021).
Peptide text beside a SMILES is read from it.

Columns and labels:
[1] = In vitro peptide stability in RPMI medium with 25% (v/v) human serum (RP-HPLC); type: in vitro ADME; conditions: 37° C., up to 24 hours
Method: (§1) Stock peptide solutions for use in stability assays were prepared by dissolving tR1 to a final concentration of 5 mg/mL in dimethyl sulfoxide (DMSO). For stability tests, 2 μL of stock tR1 peptides were added to 198 μL pre-warmed RPMI medium supplemented with 25% (v/v) heat-inactivated human AB serum or neurobasal (NB) media at a final concentration of 50 μg/mL. Each reaction was subsequently incubated at 37° C. for the indicated times. Following incubation, 400 μL aqueous trichloroacetic acid (15%, w/v) was added to each reaction and the samples were immediately cooled on ice for 15 minutes. The samples were then centrifuged 3× at 14,000 rpm to remove precipitated proteins. […] The background signal was subtracted from each respective spectrum and the fraction of intact peptide was quantified from product peak integration normalized to undigested controls. […]
(§2) A major limitation to the therapeutic efficacy of peptides is their susceptibility to proteolytic degradation. Indeed, short peptides generally have a serum half-life measured in minutes. The in vitro stability of tR1 peptides in the presence of proteolytic enzymes was determined. […] Following the incubation, the reactions were quenched using haloacetic acids and the extent of degradation was quantified by analytical HPLC.

trypsin = assay: Trypsin degradation control (RP-HPLC); type: in vitro ADME; conditions: 37° C.
Method: as §1, §2

MARK2 [2] = target: MARK2 (Homo sapiens, UniProt Q7KZI7); assay: In vitro phosphorylation assay: inhibition of MARK2-mediated phosphorylation of hTau-K18 (western blot, α-Tau pSer262); type: biochemical
Chain of MARK2 (Homo sapiens, UniProt Q7KZI7) (Q7KZI7 whole entry): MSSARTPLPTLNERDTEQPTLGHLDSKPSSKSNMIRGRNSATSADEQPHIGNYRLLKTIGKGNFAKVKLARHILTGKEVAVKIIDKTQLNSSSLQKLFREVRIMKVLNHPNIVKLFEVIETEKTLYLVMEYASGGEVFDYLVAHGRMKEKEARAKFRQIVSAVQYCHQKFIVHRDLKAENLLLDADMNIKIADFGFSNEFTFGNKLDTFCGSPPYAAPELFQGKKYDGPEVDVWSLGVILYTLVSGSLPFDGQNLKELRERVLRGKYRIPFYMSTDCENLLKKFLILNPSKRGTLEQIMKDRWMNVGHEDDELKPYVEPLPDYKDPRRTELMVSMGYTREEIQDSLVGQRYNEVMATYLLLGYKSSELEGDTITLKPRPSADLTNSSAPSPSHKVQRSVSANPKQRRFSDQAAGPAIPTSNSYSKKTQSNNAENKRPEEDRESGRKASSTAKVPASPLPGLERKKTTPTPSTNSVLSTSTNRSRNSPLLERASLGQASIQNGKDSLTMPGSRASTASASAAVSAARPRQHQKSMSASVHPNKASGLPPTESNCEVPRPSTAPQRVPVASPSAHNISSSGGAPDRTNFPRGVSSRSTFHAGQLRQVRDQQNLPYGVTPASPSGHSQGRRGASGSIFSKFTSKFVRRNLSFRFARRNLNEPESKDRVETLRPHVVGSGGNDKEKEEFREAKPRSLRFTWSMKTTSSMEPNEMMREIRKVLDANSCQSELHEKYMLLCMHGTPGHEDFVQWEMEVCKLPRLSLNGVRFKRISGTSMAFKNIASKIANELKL
Method: The ability for MARK2 to phosphorylate hTau K18 was evaluated in vitro by incubating MARK2 with hTau-K18 in the presence or absence of ATP (FIG. 1B). All phosphorylation reactions were carried out for 60 minutes at 32° C. in phosphorylation buffer (50 mM Tris-HCl, 5 mM MgCl2, 2 mM EGTA, 0.5 mM DTT, 0.5 mM benzamidine HCl, 0.5 mM PMSF, pH 8.0). Following the reaction, phosphorylated hTau-K18 proteins were separated by SDS-PAGE and identified by western blot using antibodies specific for hTau pSer262 (FIG. 1B, lanes 1 and 2). As a loading control, total hTau-K18 in each lane was quantified by western blot using antibodies specific for non-phosphorylated hTau-K18 (FIG. 1B, lower image). To ensure that the phosphorylation of hTau-K18 was a result of kinase activity and not auto-phosphorylation by ATP, hTau-K18 was incubated in the absence of MARK2 with or without ATP (FIG. 1B, lanes 3 and 4).
The ability for the tR1 peptide to act as an inhibitor of MARK2-mediated phosphorylation of hTau-K18 in vitro was examined. To test this, MARK2 and hTau-K18 were incubated in the presence of varying concentrations of tR1 for 60 minutes at 32° C. in phosphorylation buffer. Following the reaction, the proteins were separated by SDS-PAGE and identified by Western blot using antibodies specific for hTau pSer262 (FIG. 1C). Total hTau-K18 in each lane was quantified using antibodies specific for non-phosphorylated hTau-K18 (FIG. 1C, lower image).
Phosphorylation assays were performed in 30 μL phosphorylation buffer (50 mM Tris-HCl, 5 mM MgCl2, 2 mM EGTA, 0.5 mM DTT, 0.5 mM benzamidine HCl, 0.5 mM PMSF, pH 8.0) and depending on the experimental conditions. 100 μM ATP, 10 μM hTau K18, 10 nM MARK2, and 10 μM tR1 were added to the reaction mixture. The reaction was carried out for 1 hour at 32° C. […] Images were acquired by a Bio-Rad Gel Doc EZ imager and the band intensity was quantified using Image Lab Software c5.2.1 (Bio-Rad).

[3] = tested on: kinases that phosphorylate tau at Thr231; assay: Immunofluorescence of tau Thr231 phosphorylation in neurons; type: cell-based, rat
MARK2 [4] = target: MARK2 (Rattus norvegicus, UniProt O08679); assay: Immunofluorescence of PAO-induced MARK2-mediated tau Ser262 phosphorylation in neurons; type: cell-based
Chain of MARK2 (Rattus norvegicus, UniProt O08679) (O08679 whole entry): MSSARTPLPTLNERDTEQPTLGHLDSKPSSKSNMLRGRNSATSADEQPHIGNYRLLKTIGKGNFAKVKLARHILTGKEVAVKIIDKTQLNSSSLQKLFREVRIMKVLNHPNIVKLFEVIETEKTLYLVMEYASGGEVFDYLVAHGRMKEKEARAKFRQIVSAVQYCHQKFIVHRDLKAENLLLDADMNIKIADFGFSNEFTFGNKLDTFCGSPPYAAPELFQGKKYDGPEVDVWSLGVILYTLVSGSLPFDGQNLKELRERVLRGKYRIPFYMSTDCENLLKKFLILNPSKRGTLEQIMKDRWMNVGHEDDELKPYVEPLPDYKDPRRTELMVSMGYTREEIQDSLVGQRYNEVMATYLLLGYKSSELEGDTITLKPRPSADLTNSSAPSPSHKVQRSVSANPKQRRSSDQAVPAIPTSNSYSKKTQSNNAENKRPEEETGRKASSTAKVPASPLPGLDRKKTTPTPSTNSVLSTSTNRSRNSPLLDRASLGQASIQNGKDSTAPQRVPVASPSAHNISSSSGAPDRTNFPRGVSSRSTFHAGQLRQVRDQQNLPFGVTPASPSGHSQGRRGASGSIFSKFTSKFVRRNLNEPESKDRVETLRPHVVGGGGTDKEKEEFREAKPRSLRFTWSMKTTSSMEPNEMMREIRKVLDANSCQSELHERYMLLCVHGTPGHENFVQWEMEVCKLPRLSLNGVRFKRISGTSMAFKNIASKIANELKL

CC[C@H](C)[C@H](NC(=O)[C@H](CCCCN)NC(=O)[C@H](CO)NC(=O)[C@H](CCCCN)NC(=O)[C@@H](NC(=O)[C@H](CC(N)=O)NC(C)=O)C(C)C)C(=O)NCC(=O)N[C@@H](CO)C(=O)N[C@H](C(=O)N[C@@H](CCC(=O)O)C(=O)N[C@@H](CC(N)=O)C(=O)N[C@@H](CC(C)C)C(=O)N[C@@H](CCCCN)C(N)=O)[C@@H](C)O [tR1, NVKSKIGSTENLK] (Ac-NVKSKIGSTENLK-NH2)
fraction of intact tR1 (stable) [1]: > 90% | remaining at 24 h, 50 μg/mL ([1]; RPMI medium with 25% (v/v) heat-inactivated human AB serum, read-out: fraction of intact tR1 (stable)): > 90% | degradation by trypsin (trypsin; trypsin 10 ng/μL in digestion buffer, 15 minutes): complete degradation | time to degradation in buffer containing trypsin (trypsin; trypsin 10 ng/μL): less than 15 minutes | established in vitro inhibitory concentration (MARK2 [2]): 10 µM | inhibition at 50 µM (MARK2 [2]; 50 μM tR1, 60 minutes at 32° C. in phosphorylation buffer, read-out: inhibition of MARK2 activity (hTau-K18 Ser262 phosphorylation, densitometry)): ≤ 66% | concentrations at which tR1 effectively inhibits MARK2-mediated phosphorylation of hTau-K18 (MARK2 [2]; 60 minutes at 32° C., western blot): greater than 0.5 μM | level of pTau Thr231 compared to untreated control cells ([3]; 30 μM tR1 and 100 μM CLQ, no PAO): did not show any significant loss of pTau Thr231 | effect on PAO-mediated inhibition of tau Thr231 phosphorylation ([3]; tR1 with PAO, even in the presence of CLQ): did not influence the PAO-mediated inhibition of tau Thr231 phosphorylation | reduction in tau Ser262 phosphorylation (MARK2 [4]; 10 μM tR1, co-treated with bafilomycin A1 or 100 μM chloroquine, 5 μM PAO): modest reduction in tau phosphorylation | loss in tau pSer262 signal compared to cells treated with PAO alone (MARK2 [4]; 30 μM peptide and bafilomycin, PAO): ~50% | loss in tau pSer262 signal (MARK2 [4]; 30 μM peptide and chloroquine, PAO): loss in signal comparable to that of baseline | inhibition of MARK2-mediated phosphorylation of tau Ser262 (MARK2 [4]; 30 μM tR1, co-treated with bafilomycin A1 or 100 μM chloroquine, 5 μM PAO): near complete inhibition | inhibition of MARK2-mediated phosphorylation of tau Ser262 (MARK2 [4]; tR1 peptides alone (no endosome disruptor), 5 μM PAO): did not inhibit
